The record followed here is patent publication US20140045779A1, “COMPOUNDS CONTAINING AN ALICYCLIE STRUCTURE AND ANTI-TUMOR APPLICATION” (priority 2011, published 2014).

For orientation: IC50 means the concentration that gives 50% inhibition.

Converted amounts (≈) assume the structure as drawn. Where two headings read alike, the source gives them in different places.

In assay [1] the test system is mouse ascites sarcoma S180. The assay is described as follows: Efficacy studies of anti-tumor in vivo, S180 sarcoma in Kunming mice. Conditions: for Difference from the control group in S180 sarcoma growth: Kunming mice, S180, p<0.05; for Growth Inhibition of S180 sarcoma, inhibition rate: mouse, in vivo, ip.
Assay [2] has as its system MCF7 cells (breast cancer cells). The assay is described as follows: In vitro anti-cancer cell experiment (MTT), MCF7. Conditions: Homo sapiens.
[3] abbreviates: MCF7, 48 h, read-out: Growth Inhibition of cell line IC50, MCF7.
Setting [4] is: MCF7, read-out: IC50, anti-proliferative effect on MCF7 cells.

On to `O=C(Cn1cnc(-c2ccccc2)c1-c1ccccc1)NC12CC3CC(CC(C3)C1)C2` [Example 11, N-((1s,3s)-adamantan-1-yl)-2-(4,5-diphenyl-1H-imidazol-1-yl)acetamide], for which the “Difference from the control group in S180 sarcoma growth” value (“Difference from the control group” for short) in assay [1] is on record as “significant difference”.

Consider `O=C(CN1C(=O)C2C3CC(O)C(O3)C2C1=O)NC12CC3CC(CN(C3)C1)C2` (stereo not shown) [Example 7, N-((1r,3r)-1-azaadamantan-3-yl)-2-(5-hydroxy-1,3-dioxohexahydro-1H-4,7-epoxyisoindol-2(3H)-yl)acetamide], for which, in assay [1], the “Difference from the control group” value is reported as “significant difference”. For `COC(=O)C12C3CC4CC5C3CC(CC5C1(C(=O)OC)N4C)N2C` [Example 107, dimethanol decahydro-2,8,4,6-(cyclobutyl[1,2,3,4]dimethyl) naphthalene-2,4,4a,6-dicarboxylate], the “Difference from the control group” value in assay [1] is listed as “significant difference”. As to “(1R,3R,5S,7S,Z)-1-azaadamantan-4- one oxime [Example 55]”, the “Growth Inhibition of S180 sarcoma, inhibition rate” value in assay [1] worked out at 32%. `O=C1C2CC3CC(C2)OC1C3` (stereo not shown) [Example 43, 2-oxaadamantan-4-one]: the IC50 in assay [2] (setting [3]) and in assay [2] (setting [4]) was 44.2 µg/mL (≈ 291 µM) throughout. Regarding “(1R,3S,5R,7S,Z)-1-hydroxy-3-methyl-2- oxaadamantan-6-one oxime [Example 74]”, the “Growth Inhibition of S180 sarcoma, inhibition rate” value in assay [1] is 20%. Consider `COc1cc(C23CN4CN(C2)CC(c2cc(OC)c(OC)c(OC)c2)(C4)C3=O)cc(OC)c1OC` [Example 62, (1r,3r,5r,7r)-5,7-bis(3,4,5-trimethoxyphenyl)-1,3-diazaadamantan-6-one], for which the IC50 in assay [2] (setting [3]) and in assay [2] (setting [4]) was 6.94 µg/mL (≈ 14.3 µM) in each case. As to `O=C(CN1C(=O)c2ccc([N+](=O)[O-])cc2C1=O)NC12CC3CC(CN(C3)C1)C2` [Example 8, N-((1r,3r,5R,7S)-1-azaadamantan-3-yl)-2-(5-nitro-1,3-dioxoisoindolin-2-yl)acetamide], the “Difference from the control group” value in assay [1] is listed as “significant difference”. On to `CCCCCNC12CN3CN(CN(C3)C1)C2` [Example 68, (1s,3s,5s)-N-pentyl-1,3,5-triazaadamantan-7-amine], for which the IC50 in assay [2] (setting [3]) and in assay [2] (setting [4]) was 2.28 µg/mL (≈ 10.2 µM) throughout. For the same compound, the “Difference from the control group” value in assay [1] is given as “significant difference”. For `OC12CC3CC(CC(C3)O1)C2` [Example 47, 2-oxaadamantan-1-ol], the IC50 in assay [2] (setting [3]) and in assay [2] (setting [4]) was 56.3 µg/mL (≈ 365 µM) each time.

Regarding `Nc1ccc2c(c1)C(=O)N(CC(=O)NC13CC4CC(CN(C4)C1)C3)C2=O` [Example 9, N-((1r,3r,5R,7S)-1-azaadamantan-3-yl)-2-(5-amino-1,3-dioxoisoindolin-2-yl)acetamide], the “Difference from the control group” value in assay [1] is reported as “significant difference”.
